PMC6906431, “Selective small molecule PARG inhibitor causes replication fork stalling and cancer cell death” (Nature Communications, 2019)

Assays:
Format in all cases: cell-based, human
[1] = Sulforhodamine B (SRB) cytotoxicity assay; conditions: human; for viability at 72 h, 25 µM: log concentration μM 1.39794
How it was run: (§1)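 Stable scramble-shRNA control and shPARG knockdown MDA-MB-231 cells, and MRC-5 cells, exposed to increasing compound concentrations for growth-inhibitory IC50 determination. Data normalized to 100% survival at the lowest inhibitor concentration; equivalent DMSO as negative control.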

[2] = tested on: MDA-MB-231 control cells (scramble shRNA); assay: Sulforhodamine B (SRB) cytotoxicity assay; conditions: 72 h
How it was run: as §1

[3] = tested on: MDA-MB-231 PARG-KD cells; assay: Sulforhodamine B (SRB) cytotoxicity assay
How it was run: as §1

Molecule `Cn1c(=S)c2[nH]c(SCCN3CCOCC3)nc2n(C)c1=O` [JA2131] has a viability at 72 h, 25 µM ([1]; MDA-MB-231 cells with stable PARG shRNA knockdown (PARG-KD), 72 h) of 80.4%, a viability at 72 h, 50 µM ([1]; MDA-MB-231 cells with stable PARG shRNA knockdown (PARG-KD), log concentration μM 1.69897, 72 h) of 70.2% and a viability at 72 h, 25 µM ([1]; MDA-MB-231 control cells with stable scramble shRNA) of 17%. For the same molecule, the viability at 72 h, 1.95 µM ([1]; MRC-5 cells, log [concentration] μM 0.29) was 98.4%, the viability at 72 h, 3.89 µM ([1]; MRC-5 cells, log [concentration] μM 0.59) was 99.3% and the viability at 72 h, 7.76 µM ([1]; MRC-5 cells, log [concentration] μM 0.89) was 98.5%. The viability at 72 h, 15.5 µM ([1]; MRC-5 cells, log [concentration] μM 1.19) was 100%, the viability at 72 h, 30.9 µM ([1]; MRC-5 cells, log [concentration] μM 1.49) was 91.9% and the viability at 72 h, 63.1 µM ([1]; MRC-5 cells, log [concentration] μM 1.8) was 79.9%. For the same molecule, the viability at 72 h, 126 µM ([1]; MRC-5 cells, log [concentration] μM 2.1) was 61.4%, the viability at 72 h, 251 µM ([1]; MRC-5 cells, log [concentration] μM 2.4) was 28.2% and the viability at 72 h, 501 µM ([1]; MRC-5 cells, log [concentration] μM 2.7) was 20.4%. It also gave a viability at 72 h, 0.977 µM ([1]; MRC-5 cells, log [concentration] μM -0.01) of 93.5%, a viability at 72 h, 0.49 µM ([1]; MRC-5 cells, log [concentration] μM -0.31) of 100% and a viability at 72 h, 0.245 µM ([1]; MRC-5 cells, log [concentration] μM -0.61) of 100%. For the same molecule, the IC50 ([2]; Homo sapiens, MDA-MB-231, growth inhibitory) was 3.89 ± 0.88 µM, the Viability ([2]; log concentration μM 0.193959) was 75.9862% and the Viability ([2]; log concentration μM 0.49485) was 65.9005%. It also gave a Viability ([2]; log concentration μM 0.79588) of 45.256%, a Viability ([2]; log concentration μM 1.09691) of 30.1241% and a Viability ([2]; log concentration μM 1.69897) of 14.974%. For the same molecule, the Viability ([2]; log concentration μM 2) was 13.0697%, the Viability ([2]; log concentration μM 2.30103) was 16.4202% and the Viability ([2]; log concentration μM -0.10735) was 96.2538%. For the same molecule, the Viability ([2]; log concentration μM -0.40782) was 101.482%, the Viability ([2]; log concentration μM -0.70997) was 100% and the Viability ([2]; log concentration μM -1.00877) was 100%. For the same molecule, the “IC50 in PARG-depleted cells relative to control cells” value [3] was ~10 fold, the “fraction of PARG-KD cells responding to the PARGi” value [3] was 50% and the IC50 ([3]; Homo sapiens, MDA-MB-231, growth inhibitory, 72 h) was 34.4 ± 13.3 µM. It also gave a Viability ([3]; log concentration μM 0.193959, 72 h) of 105.597%, a Viability ([3]; log concentration μM 0.49485, 72 h) of 101.727% and a Viability ([3]; log concentration μM 0.79588, 72 h) of 99.9152%. For the same molecule, the Viability ([3]; log concentration μM 1.09691, 72 h) was 97.9571%, the Viability ([3]; log concentration μM 2, 72 h) was 52.7893% and the Viability ([3]; log concentration μM 2.30103, 72 h) was 51.5972%. For the same molecule, the Viability ([3]; log concentration μM -0.10735, 72 h) was 104.639%, the Viability ([3]; log concentration μM -0.40782, 72 h) was 106.229% and the Viability ([3]; log concentration μM -0.70997, 72 h) was 102.262%. For the same molecule, the Viability ([3]; log concentration μM -1.00877, 72 h) was 100%.
